Experiments:
panel of 442 kinases [1] = target: T1, panel of 442 kinases (Homo sapiens, UniProt Q14164); format: binding; conditions: Compound Concentration 10 µM
T1 construct: purchased KINOMEscan
T1 sequence (Q14164 1-716): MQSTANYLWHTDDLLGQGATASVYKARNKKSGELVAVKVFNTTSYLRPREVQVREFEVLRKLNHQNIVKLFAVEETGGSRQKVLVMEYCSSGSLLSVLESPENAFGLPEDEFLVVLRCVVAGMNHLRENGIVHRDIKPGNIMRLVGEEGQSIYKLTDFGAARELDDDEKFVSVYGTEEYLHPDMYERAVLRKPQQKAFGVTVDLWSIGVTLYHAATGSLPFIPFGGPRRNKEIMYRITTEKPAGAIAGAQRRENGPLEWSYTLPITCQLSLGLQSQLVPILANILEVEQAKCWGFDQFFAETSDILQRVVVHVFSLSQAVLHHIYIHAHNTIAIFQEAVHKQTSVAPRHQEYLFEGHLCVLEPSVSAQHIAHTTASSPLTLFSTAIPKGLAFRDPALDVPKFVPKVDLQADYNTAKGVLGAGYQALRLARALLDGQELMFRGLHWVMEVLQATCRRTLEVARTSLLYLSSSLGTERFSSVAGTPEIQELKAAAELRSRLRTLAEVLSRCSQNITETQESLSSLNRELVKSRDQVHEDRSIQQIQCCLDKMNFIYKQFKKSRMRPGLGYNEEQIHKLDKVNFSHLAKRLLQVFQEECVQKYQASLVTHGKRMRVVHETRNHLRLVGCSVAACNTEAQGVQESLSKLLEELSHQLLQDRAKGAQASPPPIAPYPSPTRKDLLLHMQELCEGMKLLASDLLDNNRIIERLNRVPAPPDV
Excerpt: (§1) We assessed the selectivity of members of this scaffold using the KINOMEscan methodology across a near comprehensive panel of 442 kinases [[18,27]].

panel of 442 kinases [2] = target: T2, panel of 442 kinases (Homo sapiens, UniProt Q16832); format: binding; conditions: Compound Concentration 10 µM
T2 construct: purchased KINOMEscan
T2 sequence (Q16832 22-855): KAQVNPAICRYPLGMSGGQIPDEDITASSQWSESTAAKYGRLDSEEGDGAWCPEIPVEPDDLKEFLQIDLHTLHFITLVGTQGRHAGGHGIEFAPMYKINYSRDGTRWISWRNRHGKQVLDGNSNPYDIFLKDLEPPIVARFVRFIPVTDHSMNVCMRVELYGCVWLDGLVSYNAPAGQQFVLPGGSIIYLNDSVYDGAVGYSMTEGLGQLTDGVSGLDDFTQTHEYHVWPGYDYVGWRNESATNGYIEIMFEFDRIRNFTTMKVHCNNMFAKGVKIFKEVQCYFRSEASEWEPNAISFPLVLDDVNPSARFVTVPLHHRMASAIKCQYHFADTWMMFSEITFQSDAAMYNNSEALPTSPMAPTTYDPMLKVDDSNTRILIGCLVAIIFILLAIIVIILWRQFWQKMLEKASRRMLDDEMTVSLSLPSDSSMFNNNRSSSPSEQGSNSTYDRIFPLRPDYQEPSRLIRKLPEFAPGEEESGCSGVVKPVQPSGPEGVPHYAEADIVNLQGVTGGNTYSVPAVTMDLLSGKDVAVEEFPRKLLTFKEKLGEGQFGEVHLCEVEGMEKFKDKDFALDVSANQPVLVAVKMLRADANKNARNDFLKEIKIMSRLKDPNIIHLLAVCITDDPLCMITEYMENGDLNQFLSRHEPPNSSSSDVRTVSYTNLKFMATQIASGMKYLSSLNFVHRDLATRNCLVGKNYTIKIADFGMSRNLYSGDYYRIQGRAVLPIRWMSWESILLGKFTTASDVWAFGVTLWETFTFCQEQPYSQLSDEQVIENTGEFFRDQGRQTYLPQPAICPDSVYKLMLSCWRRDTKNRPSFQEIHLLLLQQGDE
Excerpt: as §1

CCOc1cc(C(=O)N2CCC(N3CCN(C)CC3)CC2)ccc1Nc1ncc2c(n1)N(C1CCCC1)c1ccccc1C(=O)N2C [Compound 26]
KINOMEscan: IKK-epsilon (panel of 442 kinases [1]): 100
KINOMEscan: DDR2 (panel of 442 kinases [2]): 81

COc1cc(C(=O)N2CCC(N3CCN(C)CC3)CC2)ccc1Nc1ncc2c(n1)N(C1CCCC1)c1ccccc1C(=O)N2C [Compound 25, 11-cyclopentyl-2-((2-methoxy-4-(4-(4-methylpiperazin-1-yl)piperidine-1-carbonyl)phenyl)amino)-5-methyl-5H-benzo[e]pyrimido[5,4-b][1,4]diazepin-6(11H)-one]
KINOMEscan: IKK-epsilon (panel of 442 kinases [1]): 100
KINOMEscan: DDR2 (panel of 442 kinases [2]): 96

COc1cc(C(=O)N2CCC(N3CCN(C)CC3)CC2)ccc1Nc1ncc2c(n1)N(C)c1ccccc1C(=O)N2C [15 (LRRK2-IN-1)]
KINOMEscan: IKK-epsilon (panel of 442 kinases [1]): 96
KINOMEscan: DDR2 (panel of 442 kinases [2]): 100
